Tests used:
human ALK2 R206H = biological target: T1, human ALK2 R206H (Homo sapiens, UniProt Q04771, R206H); assay: Cell-based ALK2-R206H cell activity assay (Smad1-Ser463/Ser465 phosphorylation by AlphaLISA in HEK293-ALK2-R206H cells); settings: phospho-Smad1 AlphaLISA, read-out: Cell Line (Cell Assay, IC50 class)
T1 construct: expressed in transfected cells; host or cells: HEK293 (ATCC CRL1573), lentivirus transduction, blasticidin selection
T1 sequence (Q04771 21-509 R206H): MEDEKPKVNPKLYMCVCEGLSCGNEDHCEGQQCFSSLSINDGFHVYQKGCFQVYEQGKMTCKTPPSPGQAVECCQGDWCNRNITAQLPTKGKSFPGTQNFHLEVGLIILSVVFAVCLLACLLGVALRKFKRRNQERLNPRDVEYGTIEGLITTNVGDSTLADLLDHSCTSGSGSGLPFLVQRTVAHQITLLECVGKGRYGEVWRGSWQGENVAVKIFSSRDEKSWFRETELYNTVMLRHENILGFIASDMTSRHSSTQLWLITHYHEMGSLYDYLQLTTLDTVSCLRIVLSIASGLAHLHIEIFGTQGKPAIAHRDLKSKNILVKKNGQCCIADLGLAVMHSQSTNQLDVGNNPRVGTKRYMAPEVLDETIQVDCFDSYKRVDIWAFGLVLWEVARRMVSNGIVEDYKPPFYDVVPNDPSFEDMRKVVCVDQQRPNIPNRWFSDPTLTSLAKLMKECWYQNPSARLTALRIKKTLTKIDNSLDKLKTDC
Summary of the method: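 IC50 comes from a 10-point curve, scaled between DMSO and 1 μM LDN193189 controls, of lysate phospho-Smad1 (Ser463/465) measured by AlphaLISA. Compounds (top 10 μM or 1 μM, 3-fold steps, duplicates) were given 2-3 h to serum-starved HEK293 cells that stably express FLAG-tagged human ALK2 R206H.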

[1] = biological target: T2, ALK2R206H (mutant ALK2, N-terminally tagged with GST) (Homo sapiens, UniProt Q04771, R206H); assay: ALK binding assay (LANTHASCREEN TR-FRET competitive binding, displacement of Kinase Tracer 178); settings: read-out: Binding Assay (IC50 class)
T2 construct: purchased Carna Bioscience or ThermoFisher 09-148 or PV6232
T2 sequence (Q04771 21-509 R206H): T1 sequence (Q04771 21-509 R206H)
Summary of the method: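 Competitive displacement of Kinase Tracer 178 (50 nM) from N-terminally GST-tagged mutant ALK2 R206H (2-5 nM) by compound, detected by TR-FRET with Eu-anti-GST antibody (4-10 nM). 30 min room temperature incubation, 1% DMSO final; normalized signal fitted to 4-parameter log dose response for IC50.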

IC50 (human ALK2 R206H) | IC50 [1] | SMILES
≤ 100 nM | ≤ 10 nM | Cn1cnc(-c2[nH]c3nccc(N4CCN(C(=O)O[C@H]5CCC5(F)F)CC4)c3c2C#N)c1 [Compound 369]
100 to 500 nM | ≤ 10 nM | Cc1nc(-c2cc3c(N4CCN(C(=O)OC5COC5)CC4)ccnc3[nH]2)co1 [Compound 102]
> 500 nM | ≤ 10 nM | CCC(=O)N1CCN(c2ccnc3[nH]c(-c4cnn(C)c4)cc23)CC1 [Compound 2]
≤ 100 nM | ≤ 10 nM | CCN1CCN(c2ccc(-c3cc4c(N5CCN(C(=O)C6CC6)CC5)ccnc4[nH]3)c(OC(F)F)c2)CC1 [Compound 475]
≤ 100 nM | ≤ 10 nM | CC(C)Oc1ccc(-c2cc3c(N4CCN(C(=O)C5CC5)CC4)ccnc3[nH]2)cc1 [Compound 194]
≤ 100 nM | ≤ 10 nM | O=C(C1CC1)N1CCN(c2ccnc3[nH]c(-c4ccc(C5(F)CCCNC5)cc4)cc23)CC1 (stereo not shown) [Compound 390]
≤ 100 nM | ≤ 10 nM | CCS(=O)(=O)c1ccc(-c2cc3c(N4CCN(C(=O)OC5COC5)CC4)ccnc3[nH]2)cc1 [Compound 436]
100 to 500 nM | ≤ 10 nM | Cc1nn(C)cc1-c1cc2c(N3CCN(C(=O)[C@H]4CC[C@H](C#N)CC4)CC3)ccnc2[nH]1 [Compound 333]
≤ 100 nM | ≤ 10 nM | C[C@@H](CF)OC(=O)N1CCN(c2ccnc3[nH]c(-c4cnn(C)c4)cc23)CC1 [Compound 117]
≤ 100 nM | ≤ 10 nM | CCOC(=O)N1CCN(c2ccnc3[nH]c(-c4cnn(C)c4C#N)cc23)CC1 [Compound 70]
≤ 100 nM | ≤ 10 nM | CCN1CC[C@H](c2ccc(-c3cc4c(N5CCN(C(=O)C6CC6)CC5)ccnc4[nH]3)cc2)C(F)(F)C1 [Compound 459]
≤ 100 nM | ≤ 10 nM | CS(=O)(=O)N1CCc2nc(-c3cc4c(N5CCN(C(=O)OC6COC6)CC5)ccnc4[nH]3)sc2C1 [Compound 474]
≤ 100 nM | ≤ 10 nM | Cn1cc(-c2[nH]c3nccc(N4CCN(C(=O)O[C@H]5C[C@H](F)C5)CC4)c3c2Cl)cn1 [Compound 340]
100 to 500 nM | ≤ 10 nM | CN1CCN(C(=O)COc2ccc(-c3cc4c(N5CCN(C(=O)C6CC6)CC5)ccnc4[nH]3)cc2)CC1 [Compound 464]
≤ 100 nM | ≤ 10 nM | O=C(OC1COC1)N1CCN(c2ccnc3[nH]c(-c4cn(C(F)F)cn4)cc23)CC1 [Compound 280]
100 to 500 nM | ≤ 10 nM | CCOC(=O)N1CCN(c2ccnc3[nH]c(-c4cn(C)nc4Cl)cc23)CC1 [Compound 122]
≤ 100 nM | ≤ 10 nM | Cn1cnc(-c2[nH]c3nccc(N4CCN(C(=O)OCC(F)F)CC4)c3c2C#N)c1 [Compound 257]
